According to patent publication US20230293409A1, “Compositions Comprising Antimicrobials and (Bio)-Alkanediols for Skin Protection” (Symrise AG, priority 2020, published 2023):
In brackets after ≈: the same amount, converted by molar mass. Where two headings read alike, the source gives them in different places. Blank lines part the entries; values can stand above or below the compound they belong to.

Key:
Staphylococcus aureus = test: Minimum Inhibitory Concentration (MIC) test and Kull synergy index; type: cell-based
[1] = Maximum solubility of alkanediols in water; type: physicochemical; conditions: ambient temperature after 24 h storage at 5° C.; visual observation
human sebaceous glands = test: Sebum control: micro-dissected cultured sebaceous glands, lipids normalized upon proteins; type: cell-based; conditions: for sebum reduction: human sebaceous glands cultured six days, compared to untreated control, FIG. 2, single donor
Experimental: Additional tests were performed with human sebaceous glands in order to verify the modulatory activity of different 1,2-alkanediols on sebum secretion. Several microbial species on the skin are lipid dependent and feed on the human sebum (e.g., Corynebacterium, Propionibacterium). Accordingly, sebum reduction can indirectly support the reduction of microorganisms on the skin and in this way also indirectly support e.g., dandruff or acne reduction. For these experiments sebaceous glands had been micro-dissected and cultured with medium. The medium without any supplement served as untreated control. The medium with 5 μM Capsaicin served as positive control. Additionally, the culture medium was supplemented with different concentrations of alkanediols. After six days the sebaceous glands were collected and lipids and proteins quantified. The total lipid amount being representative of sebum production was obtained by normalizing the quantified lipids upon the quantified proteins (i.e., mg of lipids/mg of proteins).

Escherichia coli = test: Minimum Inhibitory Concentration (MIC) test; type: cell-based; conditions: single substance (Tables 1, 2)
Experimental: (§1) The Minimum Inhibitory Concentration (MIC) test is a test on growth inhibition. The estimation of MICs is executed in 96 well plates. Through the comparison of bacterial growth with positive and negative controls via optical density (OD), different concentrations of given test substances are evaluated. Bacteria were cultivated under adjusted conditions based on information of the German Collection of Microorganisms and Cell Cultures (DSMZ) and stored in 50% glycerol prior to use. Afterwards, the following method was applied: Growth medium (according to microorganism) was added to each well of the microplate. Then, the test-substances were added in different concentrations, positive controls (water controls only with medium) and negative controls (benchmarks according to organism). Finally, the microorganisms were added in a concentration of 10^6 CFU/ml (CFU=colony forming units). The incubation of the microplates was carried out at appropriate conditions. According to the resulting growth, substance concentrations are labelled either as inhibiting or not and MIC is defined as the lowest concentration where a complete growth inhibition is visible. Experiments at concentration limits (highest concentration labelled as growth and lowest concentration labelled as inhibiting) are performed at least twice.

Propionibacterium acnes = test: Minimum Inhibitory Concentration (MIC) test; type: cell-based; conditions: Cutibacterium acnes, single substance (Tables 1, 2)
Experimental: as §1

Staphylococcus hominis = test: Minimum Inhibitory Concentration (MIC) test; type: cell-based; conditions: single substance (Tables 1, 2)
Experimental: as §1

Corynebacterium jeikeium = test: Minimum Inhibitory Concentration (MIC) test; type: cell-based; conditions: single substance (Tables 1, 2)
Experimental: as §1

Candida albicans = test: Minimum Inhibitory Concentration (MIC) test; type: cell-based; conditions: single substance (Tables 1, 2)
Experimental: as §1

[2] = Table 3, Component B alone, read-out: MIC Component B in ppm

SMILES: CCCCCCC(O)CO (stereo not shown) [1,2-Octandiol, 1,2-octanediol]
Maximum solubility in water (% by weight) [1]: 0.5 % by weight

SMILES: CCCCCC(O)C(C)O (stereo not shown) [2,3-Octanediol, 2,3-octanediol]
Maximum solubility in water (% by weight) [1]: 1.5 % by weight

SMILES: CCCCC(O)C(C)O (stereo not shown) [2,3-Heptanediol, 2,3-heptanediol]
Maximum solubility in water (% by weight) [1]: 3.6 % by weight

SMILES: CCCCCCCC(O)CO (stereo not shown) [1,2-Nonanediol, 1,2-nonanediol]
concentration dependency of sebum reduction (human sebaceous glands; different concentrations, FIG. 3, single donor different from FIG. 2): experimentally confirmed
Maximum solubility in water (% by weight) [1]: 0.1 % by weight
MIC Component A in ppm (Staphylococcus aureus; Table 4, Component A alone): 1000 ppm

SMILES: CCCCC(O)CO (stereo not shown) [1,2-Hexandiol, 1,2-hexanediol]
Maximum solubility in water (% by weight) [1]: 50 % by weight

SMILES: CCCCCCCCCC(O)CO (stereo not shown) [1,2-Undecanediol, 1,2-undecanediol]
sebum reduction (human sebaceous glands): 45%
MIC (Escherichia coli): 250 µg/mL (≈ 1330 µM)
MIC (Propionibacterium acnes): 250 µg/mL (≈ 1330 µM)
MIC (Staphylococcus hominis): 125 µg/mL (≈ 664 µM)
MIC (Corynebacterium jeikeium): 250 µg/mL (≈ 1330 µM)
MIC (Candida albicans): 64 µg/mL (≈ 340 µM)
MIC (Staphylococcus aureus; single substance (Tables 1, 2), read-out: Minimum Inhibitory Concentration (MIC)): 125 µg/mL

SMILES: CCCCCC(O)CO (stereo not shown) [1,2-Heptanediol, 1,2-heptanediol]
sebum reduction (human sebaceous glands): 20%
Maximum solubility in water (% by weight) [1]: 2.5 % by weight

SMILES: CCCCCCC(O)C(C)O (stereo not shown) [2,3-Nonanediol, 2,3-nonanediol]
sebum reduction (human sebaceous glands): 40%
Maximum solubility in water (% by weight) [1]: 0.3 % by weight

Second part, the compound after the results:

MIC Component B in ppm (Staphylococcus aureus; Table 3, Component B alone): 2000 ppm
SMILES: CCCCC(CC)COCC(O)CO (stereo not shown) [Ethylhexylglycerin]

MIC (Staphylococcus aureus; [2]): 1000 µg/mL
MIC Component B in ppm (Staphylococcus aureus; Table 4, Component B alone): 1000 ppm
SMILES: CCCCCCCC(=O)NO [Caprylhydroxamic acid]

MIC (Staphylococcus aureus; [2]): 5000 µg/mL
MIC Component B in ppm (Staphylococcus aureus; Table 4, Component B alone): 5000 ppm
SMILES: OCc1ccccc1 [Benzyl Alcohol]

MIC (Staphylococcus aureus; [2]): 250 µg/mL
SMILES: CC(C)(C)C(=O)C(Oc1ccc(Cl)cc1)n1ccnc1 (stereo not shown) [Climbazole]

MIC (Staphylococcus aureus; [2]): 2500 µg/mL
SMILES: CCCCCCCC(=O)OCC(O)CO (stereo not shown) [Glyceryl caprylate]
